Test results taken from US20220411473A1, “LYSIN-ANTIMICROBIAL PEPTIDE (AMP) POLYPEPTIDE CONSTRUCTS, LYSINS, ISOLATED POLYNUCLEOTIDES ENCODING SAME AND USES THEREOF” (priority 2019, published 2022).
Where two headings read alike, the source gives them in different places.

How the values were obtained:
Staphylococcus aureus = experiment: Daptomycin MIC in […] (positive control); format: cell-based; settings: S. aureus
Description: As a positive control, the impact of […] ® on daptomycin (DAP) activity against Staphylococcus aureus was also tested.

[1] = system: carbapenem-resistant P. aeruginosa strains; format: cell-based, Pseudomonas aeruginosa; settings: for susceptibility category, antibiotic alone: Table 22, WC-452; on susceptibility category, antibiotic alone: key: (R) = resistant; (S) = sensitive; on susceptibility category, imipenem alone: key: (R) = resistant; (S) = sensitive; on susceptibility category, imipenem in combination with GN121: key: (R) = resistant; (S) = sensitive; on susceptibility category, imipenem in combination with GN123: key: (R) = resistant; (S) = sensitive; on susceptibility category, meropenem alone: key: (R) = resistant; (S) = sensitive; on susceptibility category, meropenem in combination with GN123: key: (R) = resistant; (S) = sensitive
Description: Such resensitization may be determined by combining the present lysins or lysin-AMP polypeptide constructs with an antibiotic in a checkerboard assay as described herein. Antibiotic-resistant bacteria, such as carbapenem-resistant P. aeruginosa, are added to the lysin or lysin-AMP polypeptide construct combination. […] See Clinical and Laboratory Standards Institute (CLSI), CLSI. […] M100 Performance Standards for Antimicrobial Susceptibility Testing; 29th Edition. Clinical and Laboratory Standards Institute, Wayne, Pa., which is herein incorporated by reference in its entirety.
Up to seven carbapenem-resistant isolates were assessed. […] See Clinical and Laboratory Standards Institute (CLSI), CLSI. […] M100 Performance Standards for Antimicrobial Susceptibility Testing; 29th Edition. Clinical and Laboratory Standards Institute, Wayne, Pa.

[2] = Table 18, isolates PA19-PA24 and WC-452
[3] = Table 19, isolates PA19-PA24 and WC-452

Molecule: daptomycin
- fold increase in MIC (Staphylococcus aureus; 0.09% SURVANTA): 32 fold
- fold increase in MIC (Staphylococcus aureus; 0.19% SURVANTA): 32 fold
- fold increase in MIC (Staphylococcus aureus; 1.56% SURVANTA): 128 fold
- fold increase in MIC (Staphylococcus aureus; 3.15% SURVANTA): 128 fold

Molecule: C[C@@H](O)[C@H]1C(=O)N2C(C(=O)O)=C(SCCN=CN)C[C@H]12 [Imipenem, imipenem]
- susceptibility category, imipenem alone [1, 2]: R
- susceptibility category, imipenem in combination with GN123 [1, 2]: (S)
- susceptibility category, imipenem alone ([1]; Table 20, isolates PA19-PA24): R
- susceptibility category, imipenem in combination with GN121 ([1]; Table 20, isolates PA19-PA24): (S)
- susceptibility category, antibiotic alone [1]: R
- MIC Combination ([1]; isolate PA19, imipenem + GN121): 1 µg/mL
- MIC Combination ([1]; isolate PA19, imipenem + GN123): 0.5 µg/mL
- MIC Combination ([1]; isolate PA20, imipenem + GN121): 0.5 µg/mL
- MIC Combination ([1]; isolate PA20, imipenem + GN123): 1 µg/mL
- MIC Combination ([1]; isolate PA21, imipenem + GN121): 1 µg/mL
- MIC Combination ([1]; isolate PA21, imipenem + GN123): 0.5 µg/mL
- MIC Combination ([1]; isolate PA22, imipenem + GN121): 2 µg/mL
- MIC Combination ([1]; isolate PA22, imipenem + GN123): 2 µg/mL
- MIC Combination ([1]; isolate PA23, imipenem + GN123): 0.25 µg/mL
- MIC Combination ([1]; isolate PA24, imipenem + GN121): 1 µg/mL
- MIC Combination ([1]; isolate PA24, imipenem + GN123): 2 µg/mL
- MIC Combination ([1]; isolate WC-452, imipenem + GN123): 1 µg/mL

Molecule: C[C@@H](O)[C@H]1C(=O)N2C(C(=O)O)=C(S[C@@H]3CN[C@H](C(=O)N(C)C)C3)[C@H](C)[C@H]12 [Meropenem, meropenem]
- susceptibility category, meropenem alone [1, 3]: R
- susceptibility category, meropenem in combination with GN123 [1, 3]: (S)
- susceptibility category, meropenem alone ([1]; Table 21, isolates PA19-PA24 and WC-452): R
- susceptibility category, antibiotic alone [1]: R
- MIC Combination ([1]; isolate PA19, meropenem + GN121): 1 µg/mL
- MIC Combination ([1]; isolate PA19, meropenem + GN123): 0.5 µg/mL
- MIC Combination ([1]; isolate PA20, meropenem + GN121): 1 µg/mL
- MIC Combination ([1]; isolate PA20, meropenem + GN123): 0.5 µg/mL
- MIC Combination ([1]; isolate PA21, meropenem + GN121): 2 µg/mL
- MIC Combination ([1]; isolate PA21, meropenem + GN123): 1 µg/mL
- MIC Combination ([1]; isolate PA22, meropenem + GN121): 1 µg/mL
- MIC Combination ([1]; isolate PA22, meropenem + GN123): 1 µg/mL
- MIC Combination ([1]; isolate PA23, meropenem + GN121): 2 µg/mL
- MIC Combination ([1]; isolate PA23, meropenem + GN123): 0.5 µg/mL
- MIC Combination ([1]; isolate PA24, meropenem + GN121): 1 µg/mL
- MIC Combination ([1]; isolate PA24, meropenem + GN123): 2 µg/mL
- MIC Combination ([1]; isolate WC-452, meropenem + GN121): 1 µg/mL
- MIC Combination ([1]; isolate WC-452, meropenem + GN123): 1 µg/mL
